Data set [1] deals with NF-κB signaling in HEK293 cells. Put plainly: NF-κB luciferase reporter gene system. Type of data set: cell-based. As to the method:
(§1) FIGS. 10A-10C show the inhibition verification effect chart of GA-02 in Example 5, where FIG. 10A: GA-02 inhibited LPS-induced ICAM-1 expression activity. The inflammatory pathway of HMEC-1 cell was activated by 1 μg/mL LPS, to determine the effect of Celastrol and GA-02 on the expression of ICAM-1 induced by LPS. FIG. 10B: The effect of GA-02 on NF-κB signaling. The NF-κB luciferase reporter plasmid was used to transfect HEK293 cells, and the effects of Celastrol and GA-02 on the NF-κB activity induced by TNF-α were determined; FIG. 10C: qRT-PCR was used to detect mRNA relative expressions of IL-1β, TNF-α, IL-6 and MCP-1.
(§2) ICAM-1 is a downstream effector molecule regulated by NF-κB signaling pathway, and NF-κB plays an important role in regulating the expression of ICAM-1 gene. Celastrol can inhibit the activation of the LPS-induced IKK/NF-κB signaling pathway. In order to validate that GA-02 functions through the IKK/NF-κB signaling pathway, we constructed an NF-κB luciferase reporter gene system to validate the inhibitory activity of Celastrol and GA-02 on the luciferase reporter gene. […] In addition, both Celastrol and GA-02 could down-regulate the mRNA transcription levels of inflammatory factors IL-1β, TNF-α, IL-6 and MCP-1 activated by LPS.

The test system of data set [2] is mRNA of IL-1β, TNF-α, IL-6 and MCP-1. Nature of the data set: qRT-PCR of inflammatory factor mRNA. In kind it is cell-based. The note with it: activated by LPS. The protocol: as §1, §2
The subject of data set [3] is Leptin receptor-deficient db/db mice. Nature of the data set: GA-02 in db/db mice, intraperitoneal. Type of data set: in vivo. The settings on record: 20 mg/kg i.p., 14 days. As to the method: (§3) Eight-week-old male ob/ob and db/db mice are adapted to the environment under normal conditions for one week. The animals are grouped according to the body weight and blood glucose, 2 cages in each group, 5 animals in each cage. Mice are acclimatized with the vehicle for 3 days in the experimental group (25 μL DMSO/day) and are injected with drugs by intraperitoneal injection (20 mg/kg; 25 μL per injection). Mice in the control group are injected with the same volume of vehicle. The administration starts from 18:00 every day for 14 consecutive days. The body weight and food intake of mice are recorded every day.

Data set [4] relates to Leptin-deficient ob/ob mice. Nature of the data set: GA-02 in ob/ob mice, intraperitoneal. Type of data set: in vivo. The settings on record: 20 mg/kg i.p. The protocol:
as §3

For the next data set, the system named is obese mice of about 45 g. Nature of the data set: GA-02 intragastric administration in obese mice. The settings on record: 40 mg/kg intragastric, two weeks. In kind it is in vivo.
Data set [5] relates to mildly obese mice of weighing about 30 g. Nature of the data set: GA-02 intragastric administration in mildly obese mice. Type of data set: in vivo. The settings on record: 40 mg/kg intragastric, two weeks.
Experimental: (§4) The lean mice of about 25 g, mildly obese mice of weighing about 30 g, and obese mice of about 45 g are given blank vehicle and high-dose GA-02 (40 mg/kg) by intragastric administration, respectively.
The subject of a further data set is lean mice (about 22 g). The settings on record: mouse, in vivo, ip.

The structures appear in SMILES notation.

Experimental for lean mice (about 22 g): The animal feeding and experiment method are as follows. Six-week-old SPF-grade C57BL/6 mice (purchased from Hubei Provincial Center for Disease Control and Prevention) are fed in SPF animal house at a room temperature of 22° C., 4 mice per cage. Animals are fed with ordinary mouse feeds (purchased from) for 2 consecutive weeks. Mice are free to take food and the padding is changed every two days, and the body weights and blood glucose are monitored every week. When the body weight reaches 22 g, the administration is started. The drug is dissolved in DMSO solvent and administered by intraperitoneal injection at an injection volume of 25 μL per day. In addition, a vehicle and positive drug control are established. The food intake and body weight changes of mice in each group are measured every day.
Experimental for obese mice of about 45 g: as §4

For the compound `CC1(C(=O)O)CCC2(C)CCC3(C)C(=CC(=O)C4C5(C)C=C(O)C(=O)C(C)(C)C5CCC43C)C2C1` (stereo not drawn) [GA-02, 3,11-dicarbonyl-1,12-diene-2-hydroxy-oleanane-30 carboxylic acid], the “inhibition of NF-κB reporter fluorescence compared with Celastrol” value in data set [1] (10 μM) was “equivalent to that of 1 μM Celastrol”. In addition, in data set [1] (different concentrations), the “inhibition of the fluorescence intensity, concentration dependence” value was “concentration-dependent manner”. In addition, the “mRNA transcription levels of inflammatory factors IL-1β, TNF-α, IL-6 and MCP-1” value in data set [2] is listed as “down-regulate”. In data set [3], the body weight increase was 15% and the “food intakes compared with the vehicle control group” value is “do not change significantly”. In data set [4] (14 days), the “food intake compared with the blank vehicle group” value is reported as “reduced, but it is not significant” and the “overall decrease in body weight” value is recorded as “not significant”. The compound further showed a body weight increase in data set [4] (in the first five days, later dropped to the initial body weight) of 10%. In addition, in the data set on obese mice of about 45 g, the “average daily food intake reduced by” value was 50% and the “body weight reduced by” value came to 21%. In data set [5], the “average daily food intake reduced by” value was 30% and the “body weight reduced by” value was found to be 16%. Moreover, in the data set on lean mice (about 22 g), the body weights result is given as “no decrease but an upward trend”; the “effect on the food intake and body weight (summary)” value was “no effect”; the “food intakes compared to the vehicle control group” value is on record as “no significant change”.

(Values after patent publication US20220112149A1, “DRUG DESIGN METHOD ASSOCIATED WITH NATURAL PRODUCTS, PENTACYCLIC TRITERPENOID COMPOUND, PREPARATION METHOD AND APPLICATIONS THEREOF” (Huazhong Agricultural University, priority 2020, published 2022).)
